The source of these data is US10344060B2 (priority 2013, dated 2019).

“And” between values parts separate entries of the source, which are not always exact repeats. Equal entries are not always repeated. Where two headings read alike, the source gives them in different places. A value given as a limit tells only on which side of the number the result lay.

The term IC50 denotes the point on the concentration scale where inhibition reaches its midpoint.

Holding throughout (test): cell-based
For one assay, the target named is hNav1.3 (Homo sapiens, UniProt Q9NY46). Conditions: read-out: IC50 (μM) Nav1.3.
Another assay deals with hNav1.4 (Homo sapiens, UniProt P35499). It is filed as cell-based. Conditions: for IC50: read-out: IC50 (μM) Nav1.4; for Nav1.4/Nav1.7: ratio of IonWorks Quattro IC50 values. For orientation: Patch clamp records ionic current or voltage across a cell membrane.
Chain of hNav1.4 (P35499 whole entry): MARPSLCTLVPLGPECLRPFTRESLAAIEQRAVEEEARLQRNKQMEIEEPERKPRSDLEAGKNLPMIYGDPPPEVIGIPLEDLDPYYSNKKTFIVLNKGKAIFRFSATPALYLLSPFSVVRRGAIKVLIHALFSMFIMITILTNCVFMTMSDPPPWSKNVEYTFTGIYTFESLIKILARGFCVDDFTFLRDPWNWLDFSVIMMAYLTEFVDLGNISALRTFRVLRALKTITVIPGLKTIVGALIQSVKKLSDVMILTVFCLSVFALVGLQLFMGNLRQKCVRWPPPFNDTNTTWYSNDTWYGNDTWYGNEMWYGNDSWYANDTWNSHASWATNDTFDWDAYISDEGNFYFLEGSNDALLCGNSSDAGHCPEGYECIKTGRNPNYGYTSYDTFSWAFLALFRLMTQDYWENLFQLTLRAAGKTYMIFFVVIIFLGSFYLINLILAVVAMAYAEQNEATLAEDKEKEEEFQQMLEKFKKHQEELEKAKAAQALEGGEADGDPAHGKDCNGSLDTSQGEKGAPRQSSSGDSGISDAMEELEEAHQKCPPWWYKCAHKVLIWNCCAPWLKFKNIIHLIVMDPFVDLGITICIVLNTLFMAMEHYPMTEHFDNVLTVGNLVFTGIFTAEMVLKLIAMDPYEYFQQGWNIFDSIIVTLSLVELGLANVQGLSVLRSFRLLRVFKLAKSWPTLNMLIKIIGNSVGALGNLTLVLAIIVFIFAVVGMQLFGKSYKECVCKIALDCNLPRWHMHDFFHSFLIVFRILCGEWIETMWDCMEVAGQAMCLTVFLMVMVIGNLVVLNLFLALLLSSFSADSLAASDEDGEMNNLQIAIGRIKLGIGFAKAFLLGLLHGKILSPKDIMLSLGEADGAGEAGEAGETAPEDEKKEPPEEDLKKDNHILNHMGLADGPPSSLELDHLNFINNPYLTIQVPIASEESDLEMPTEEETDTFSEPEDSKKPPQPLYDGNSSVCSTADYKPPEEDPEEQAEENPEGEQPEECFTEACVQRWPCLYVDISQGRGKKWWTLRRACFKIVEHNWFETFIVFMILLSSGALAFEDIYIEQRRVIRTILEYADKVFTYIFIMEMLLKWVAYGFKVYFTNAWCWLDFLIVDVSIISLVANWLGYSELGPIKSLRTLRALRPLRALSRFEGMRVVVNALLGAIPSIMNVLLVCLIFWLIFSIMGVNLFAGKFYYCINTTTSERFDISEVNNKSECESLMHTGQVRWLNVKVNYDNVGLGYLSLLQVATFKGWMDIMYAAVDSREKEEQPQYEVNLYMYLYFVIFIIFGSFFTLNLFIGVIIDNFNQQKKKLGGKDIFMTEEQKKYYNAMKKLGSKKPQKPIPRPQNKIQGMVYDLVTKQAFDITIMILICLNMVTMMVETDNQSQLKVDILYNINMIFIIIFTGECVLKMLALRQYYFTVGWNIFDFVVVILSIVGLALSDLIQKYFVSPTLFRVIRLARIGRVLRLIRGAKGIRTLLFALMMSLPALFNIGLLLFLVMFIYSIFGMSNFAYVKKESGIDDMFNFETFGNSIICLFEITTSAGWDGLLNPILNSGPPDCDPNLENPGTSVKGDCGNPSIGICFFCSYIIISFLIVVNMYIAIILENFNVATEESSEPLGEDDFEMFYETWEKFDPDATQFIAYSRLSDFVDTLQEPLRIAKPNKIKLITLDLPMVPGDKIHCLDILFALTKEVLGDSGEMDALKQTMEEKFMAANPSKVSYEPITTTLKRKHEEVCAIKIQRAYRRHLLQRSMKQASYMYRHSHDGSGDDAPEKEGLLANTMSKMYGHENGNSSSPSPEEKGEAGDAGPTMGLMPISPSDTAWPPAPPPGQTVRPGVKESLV
For the next assay, the target named is hNav1.5 (Homo sapiens, UniProt Q14524). Conditions: read-out: IC50 (μM) Nav1.5.
A further assay concerns the target hNav1.7 (Homo sapiens, UniProt Q15858). Conditions: for IC50: read-out: IC50 (μM) Nav1.7; for Nav1.4/Nav1.7: ratio of IonWorks Quattro IC50 values, Nav1.4 over Nav1.7.

Chain of hNav1.7 (Q15858 whole entry): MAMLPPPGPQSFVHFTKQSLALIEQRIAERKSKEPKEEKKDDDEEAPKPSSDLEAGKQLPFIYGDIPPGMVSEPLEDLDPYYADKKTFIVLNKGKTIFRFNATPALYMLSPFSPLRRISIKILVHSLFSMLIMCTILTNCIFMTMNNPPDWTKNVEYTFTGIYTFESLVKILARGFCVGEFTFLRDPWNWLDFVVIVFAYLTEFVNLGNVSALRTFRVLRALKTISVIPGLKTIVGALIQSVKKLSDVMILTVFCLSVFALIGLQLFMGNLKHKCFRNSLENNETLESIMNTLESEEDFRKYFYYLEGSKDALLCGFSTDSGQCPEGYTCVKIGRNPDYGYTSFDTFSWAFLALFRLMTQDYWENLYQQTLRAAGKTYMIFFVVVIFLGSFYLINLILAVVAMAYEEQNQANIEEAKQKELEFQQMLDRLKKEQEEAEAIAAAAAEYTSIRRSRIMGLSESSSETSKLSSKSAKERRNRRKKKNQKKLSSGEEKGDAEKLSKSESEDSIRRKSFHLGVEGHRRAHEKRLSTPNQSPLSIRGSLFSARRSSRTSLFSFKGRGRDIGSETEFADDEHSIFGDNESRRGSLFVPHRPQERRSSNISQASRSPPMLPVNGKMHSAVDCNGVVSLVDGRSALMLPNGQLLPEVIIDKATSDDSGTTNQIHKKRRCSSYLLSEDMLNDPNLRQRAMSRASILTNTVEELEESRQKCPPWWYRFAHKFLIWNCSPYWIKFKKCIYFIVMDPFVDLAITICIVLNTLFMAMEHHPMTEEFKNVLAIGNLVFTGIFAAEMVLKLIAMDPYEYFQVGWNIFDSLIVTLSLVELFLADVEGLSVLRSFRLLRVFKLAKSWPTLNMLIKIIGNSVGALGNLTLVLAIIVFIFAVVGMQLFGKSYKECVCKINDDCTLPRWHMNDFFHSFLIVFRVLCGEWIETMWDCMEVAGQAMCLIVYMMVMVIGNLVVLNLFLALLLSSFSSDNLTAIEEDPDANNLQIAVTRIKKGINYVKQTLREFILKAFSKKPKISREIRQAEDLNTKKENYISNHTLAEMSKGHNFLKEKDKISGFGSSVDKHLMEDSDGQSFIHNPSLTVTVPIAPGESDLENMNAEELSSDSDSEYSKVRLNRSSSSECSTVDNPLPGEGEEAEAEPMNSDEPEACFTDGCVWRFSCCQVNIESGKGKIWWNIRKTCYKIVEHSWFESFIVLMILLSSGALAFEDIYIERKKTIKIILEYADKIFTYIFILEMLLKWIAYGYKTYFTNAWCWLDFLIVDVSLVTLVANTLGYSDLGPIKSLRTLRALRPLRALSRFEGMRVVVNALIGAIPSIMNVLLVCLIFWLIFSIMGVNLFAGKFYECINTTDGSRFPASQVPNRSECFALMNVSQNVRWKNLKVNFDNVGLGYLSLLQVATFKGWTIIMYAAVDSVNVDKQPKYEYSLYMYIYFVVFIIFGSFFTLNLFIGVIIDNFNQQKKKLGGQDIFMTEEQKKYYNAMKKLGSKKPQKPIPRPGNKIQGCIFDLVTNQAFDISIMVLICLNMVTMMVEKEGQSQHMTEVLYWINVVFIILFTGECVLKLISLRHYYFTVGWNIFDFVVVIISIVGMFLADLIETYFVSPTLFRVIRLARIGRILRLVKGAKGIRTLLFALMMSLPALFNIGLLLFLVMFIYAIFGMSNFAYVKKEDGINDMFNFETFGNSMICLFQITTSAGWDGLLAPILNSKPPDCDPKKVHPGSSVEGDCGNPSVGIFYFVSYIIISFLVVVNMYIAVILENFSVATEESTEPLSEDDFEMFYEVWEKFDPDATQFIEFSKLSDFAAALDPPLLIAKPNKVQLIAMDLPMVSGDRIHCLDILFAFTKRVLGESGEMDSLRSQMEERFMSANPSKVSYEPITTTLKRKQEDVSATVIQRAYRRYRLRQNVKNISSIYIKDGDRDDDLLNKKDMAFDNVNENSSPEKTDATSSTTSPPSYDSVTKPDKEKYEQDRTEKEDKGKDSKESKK

For the molecule `CC[C@H](C)[C@H](NC(=O)[C@H](CCCCN)NC(=O)[C@H](CCCNC(=N)N)NC(=O)[C@@H]1CSSC[C@@H]2NC(=O)[C@H](C)NC(=O)[C@H](CCCNC(=N)N)NC(=O)[C@H](CCCCN)NC(=O)[C@H](CO)NC(=O)[C@H](CC(=O)O)NC(=O)[C@@H]3CSSC[C@H](NC(=O)[C@H](CCCNC(=N)N)NC(=O)[C@H](CC(C)C)NC(=O)CNC(=O)[C@H](CCC(=O)O)NC(=O)[C@H](CSSC[C@H](NC(=O)[C@@H](N)Cc4ccc(O)cc4)C(=O)N[C@@H](CCC(N)=O)C(=O)N[C@@H](CCCCN)C(=O)N[C@@H](Cc4c[nH]c5ccccc45)C(=O)N[C@@H](CCSC)C(=O)N[C@@H](Cc4c[nH]c5ccccc45)C(=O)N[C@@H]([C@@H](C)O)C(=O)N3)NC2=O)C(=O)N[C@@H](CCCCN)C(=O)N[C@@H](CC(C)C)C(=O)N[C@@H](Cc2c[nH]c3ccccc23)C(=O)N1)C(=O)N[C@@H](CCCNC(=N)N)C(N)=O` [compound 109], the IC50 on hNav1.3 (IonWorks Quattro, Table 6) was 1.3 µM; on hNav1.4 (IonWorks Quattro, Table 6) it was 1.1 µM; on hNav1.5 (IonWorks Quattro, Table 6) it was more than 5 µM; at hNav1.7, 0.067 µM. Besides, the Nav1.4/Nav1.7 at hNav1.4 (Table 6) is 16.

Turning to `CC[C@H](C)[C@H](NC(=O)[C@@H](NC(=O)[C@H](CCCCN)NC(=O)[C@H](CCCNC(=N)N)NC(=O)[C@@H]1CSSC[C@@H]2NC(=O)[C@H](C)NC(=O)[C@H](CCCNC(=N)N)NC(=O)[C@H](CCCCN)NC(=O)[C@H](CO)NC(=O)[C@H](CC(=O)O)NC(=O)[C@@H]3CSSC[C@H](NC(=O)[C@H](CCCNC(=N)N)NC(=O)[C@H](CC(C)C)NC(=O)[C@H](C)NC(=O)[C@H](CCC(=O)O)NC(=O)[C@H](CSSC[C@H](NC(=O)[C@@H](N)Cc4ccc(O)cc4)C(=O)N[C@@H](CCC(N)=O)C(=O)N[C@@H](CCCCN)C(=O)N[C@@H](Cc4c[nH]c5ccccc45)C(=O)N[C@@H](CCSC)C(=O)N[C@@H](Cc4c[nH]c5ccccc45)C(=O)N[C@@H]([C@@H](C)O)C(=O)N3)NC2=O)C(=O)N[C@@H](CCCCN)C(=O)N[C@@H](CC(C)C)C(=O)N[C@@H](Cc2c[nH]c3ccccc23)C(=O)N1)[C@@H](C)CC)C(N)=O` [compound 15], the IC50 is 0.24 µM on hNav1.3 (IonWorks Quattro, Table 6); 0.26 µM at hNav1.4 (IonWorks Quattro, Table 6); more than 5 µM at hNav1.5 (IonWorks Quattro, Table 6); 0.04 µM on hNav1.7. Further, on hNav1.4 (Table 6), the Nav1.4/Nav1.7 amounted to 7.

Turning to `CC[C@H](C)[C@H](NC(=O)[C@@H](NC(=O)[C@H](CCCCN)NC(=O)[C@H](CCCNC(=N)N)NC(=O)[C@@H]1CSSC[C@@H]2NC(=O)[C@H](C)NC(=O)[C@H](CCCNC(=N)N)NC(=O)[C@H](CCCCN)NC(=O)[C@H](CO)NC(=O)[C@H](CC(=O)O)NC(=O)[C@@H]3CSSC[C@H](NC(=O)[C@H](CCCNC(=N)N)NC(=O)[C@H](CC(C)C)NC(=O)CNC(=O)[C@H](CCC(=O)O)NC(=O)[C@H](CSSC[C@H](NC(=O)[C@@H](N)Cc4ccc(O)cc4)C(=O)N[C@@H](CCC(N)=O)C(=O)N[C@@H](CCCCN)C(=O)N[C@@H](Cc4c[nH]c5ccccc45)C(=O)N[C@@H](CCSC)C(=O)N[C@@H](CCCNC(=N)N)C(=O)N[C@@H]([C@@H](C)O)C(=O)N3)NC2=O)C(=O)N[C@@H](CCCCN)C(=O)N[C@@H](CC(C)C)C(=O)N[C@@H](Cc2c[nH]c3ccccc23)C(=O)N1)[C@@H](C)CC)C(N)=O` [compound 95], the IC50 is 0.08 µM on hNav1.3 (IonWorks Quattro, Table 6); 0.4 µM on hNav1.4 (IonWorks Quattro, Table 6); more than 5 µM on hNav1.5 (IonWorks Quattro, Table 6); 0.053 µM on hNav1.7. On hNav1.4 (Table 6), the Nav1.4/Nav1.7 is given as 8.

Consider `CC[C@H](C)[C@H](NC(=O)[C@H](CCCCN)NC(=O)[C@H](CCCNC(=N)N)NC(=O)[C@@H]1CSSC[C@@H]2NC(=O)[C@H](C)NC(=O)[C@H](CCCNC(=N)N)NC(=O)[C@H](CCCCN)NC(=O)[C@H](CO)NC(=O)[C@H](CC(=O)O)NC(=O)[C@@H]3CSSC[C@H](NC(=O)[C@H](CCCNC(=N)N)NC(=O)[C@H](CC(C)C)NC(=O)CNC(=O)[C@H](CCC(=O)O)NC(=O)[C@H](CSSC[C@H](NC(=O)[C@@H](N)Cc4ccc(O)cc4)C(=O)N[C@@H](CCC(N)=O)C(=O)N[C@@H](CCCCN)C(=O)N[C@@H](Cc4c[nH]c5ccccc45)C(=O)N[C@@H](CCSC)C(=O)N[C@@H](Cc4c[nH]c5ccccc45)C(=O)N[C@@H]([C@@H](C)O)C(=O)N3)NC2=O)C(=O)N[C@@H](CCCCN)C(=O)N[C@@H](CC(C)C)C(=O)N[C@@H](Cc2c[nH]c3ccccc23)C(=O)N1)C(=O)N[C@@H](C)C(N)=O` [compound 24], for which the IC50 at hNav1.3 (IonWorks Quattro, Table 6) was 0.45 µM; at hNav1.4 (IonWorks Quattro, Table 6), 0.27 µM; at hNav1.5 (IonWorks Quattro, Table 6), more than 5 µM; at hNav1.7 it was 0.053 µM. The Nav1.4/Nav1.7 on hNav1.4 (Table 6) is listed as 5.

For the molecule `CC[C@H](C)[C@H](NC(=O)[C@@H](NC(=O)[C@H](CCCCN)NC(=O)[C@H](CCCNC(=N)N)NC(=O)[C@@H]1CSSC[C@@H]2NC(=O)[C@H](C)NC(=O)[C@H](CCCNC(=N)N)NC(=O)[C@H](CCCCN)NC(=O)[C@H](CO)NC(=O)[C@H](CC(=O)O)NC(=O)[C@@H]3CSSC[C@H](NC(=O)[C@H](CCCNC(=N)N)NC(=O)[C@H](CC(C)C)NC(=O)CNC(=O)[C@H](CCC(=O)O)NC(=O)[C@H](CSSC[C@H](NC(=O)[C@@H](N)Cc4ccc(O)cc4)C(=O)N[C@@H](CCC(N)=O)C(=O)N[C@@H](CCCCN)C(=O)N[C@@H](Cc4c[nH]c5ccccc45)C(=O)N[C@@H](CCSC)C(=O)N[C@@H](Cc4c[nH]c5ccccc45)C(=O)N[C@@H]([C@@H](C)O)C(=O)N3)NC2=O)C(=O)N[C@@H](CCCCN)C(=O)N[C@@H](CCCCN)C(=O)N[C@@H](Cc2c[nH]c3ccccc23)C(=O)N1)[C@@H](C)CC)C(N)=O` [compound 85], the IC50 was determined as 0.14 µM on hNav1.3 (IonWorks Quattro, Table 6); 0.29 µM at hNav1.4 (IonWorks Quattro, Table 6); 4.1 µM at hNav1.5 (IonWorks Quattro, Table 6); 0.24 µM at hNav1.7. The Nav1.4/Nav1.7 at hNav1.4 (Table 6) came out at 1.

For `CC[C@@H]1NC(=O)[C@H](CC(C)C)NC(=O)CNC(=O)[C@H](CCC(=O)O)NC(=O)[C@@H]2CSSC[C@H](NC(=O)[C@@H](N)Cc3ccc(O)cc3)C(=O)N[C@@H](CCC(N)=O)C(=O)N[C@@H](CCCCN)C(=O)N[C@@H](Cc3c[nH]c4ccccc34)C(=O)N[C@@H](CCSC)C(=O)N[C@@H](Cc3c[nH]c4ccccc34)C(=O)N[C@@H]([C@@H](C)O)C(=O)N[C@H]3CSSC[C@H](NC1=O)C(=O)N[C@@H](CCCCN)C(=O)N[C@@H](CC(C)C)C(=O)N[C@@H](Cc1c[nH]c4ccccc14)C(=O)N[C@H](C(=O)N[C@@H](CCCNC(=N)N)C(=O)N[C@@H](CCCCN)C(=O)N[C@H](C(=O)N[C@H](C(N)=O)[C@@H](C)CC)[C@@H](C)CC)CSSC[C@H](NC(=O)[C@H](C)NC(=O)[C@H](CCCNC(=N)N)NC(=O)[C@H](CCCCN)NC(=O)[C@H](CO)NC(=O)[C@H](CC(=O)O)NC3=O)C(=O)N2` [compound 117], the IC50 at hNav1.3 came out at 0.97 µM; at hNav1.4 it was 0.9 µM; at hNav1.5 it was 10.6 µM; on hNav1.7, 0.05 µM. In addition, on hNav1.7, the Nav1.4/Nav1.7 amounted to 19.

As to `CC[C@H](NC(=O)[C@H](CCCCN)NC(=O)[C@H](CCCNC(=N)N)NC(=O)[C@@H]1CSSC[C@@H]2NC(=O)[C@H](C)NC(=O)[C@H](CCCNC(=N)N)NC(=O)[C@H](CCCCN)NC(=O)[C@H](CO)NC(=O)[C@H](CC(=O)O)NC(=O)[C@@H]3CSSC[C@H](NC(=O)[C@H](CCC(=O)O)NC(=O)[C@H](CC(C)C)NC(=O)CNC(=O)[C@H](CCC(=O)O)NC(=O)[C@H](CSSC[C@H](NC(=O)[C@@H](N)Cc4ccc(O)cc4)C(=O)N[C@@H](CCC(N)=O)C(=O)N[C@@H](CCCCN)C(=O)N[C@@H](Cc4c[nH]c5ccccc45)C(=O)N[C@@H](CCSC)C(=O)N[C@@H](Cc4c[nH]c5ccccc45)C(=O)N[C@@H]([C@@H](C)O)C(=O)N3)NC2=O)C(=O)N[C@@H](CCCCN)C(=O)N[C@@H](CC(C)C)C(=O)N[C@@H](Cc2c[nH]c3ccccc23)C(=O)N1)C(=O)N[C@H](C(N)=O)[C@@H](C)CC` [compound 130], the IC50 on hNav1.3 was more than 5 µM; on hNav1.4 it was more than 5 µM; at hNav1.5 it was 8.2 µM and 11.1 µM; on hNav1.7 it was 0.17 µM and 0.21 µM. Moreover, on hNav1.7, the Nav1.4/Nav1.7 is 29 and 24.

Regarding `CC[C@H](C)[C@H](NC(=O)[C@@H](NC(=O)[C@H](CCCCN)NC(=O)[C@H](CCCNC(=N)N)NC(=O)[C@@H]1CSSC[C@@H]2NC(=O)[C@H](C)NC(=O)[C@H](CCCNC(=N)N)NC(=O)[C@H](CCCCN)NC(=O)[C@H](CO)NC(=O)[C@H](CC(=O)O)NC(=O)[C@@H]3CSSC[C@H](NC(=O)[C@H](CCCNC(=N)N)NC(=O)[C@H](CC(C)C)NC(=O)CNC(=O)[C@H](CCC(=O)O)NC(=O)[C@H](CSSC[C@H](NC(=O)[C@@H](N)Cc4ccc(O)cc4)C(=O)N[C@@H](CCC(N)=O)C(=O)N[C@@H](CCCCN)C(=O)N[C@@H](Cc4c[nH]c5ccccc45)C(=O)N[C@@H](CCSC)C(=O)N[C@@H](Cc4c[nH]c5ccccc45)C(=O)N[C@@H]([C@@H](C)O)C(=O)N3)NC2=O)C(=O)N[C@@H](CCCCN)C(=O)N[C@@H](CC(C)C)C(=O)N[C@@H](CCCNC(=N)N)C(=O)N1)[C@@H](C)CC)C(N)=O` [compound 106], the IC50 on hNav1.3 (IonWorks Quattro, Table 6) is 4.8 µM; on hNav1.4 (IonWorks Quattro, Table 6), 2.5 µM; at hNav1.5 (IonWorks Quattro, Table 6) it was more than 5 µM; at hNav1.7, 5 µM. Besides, on hNav1.4 (Table 6), the Nav1.4/Nav1.7 came out at 1.
